Where a name gives a salt, the structure may show the parent alone. Read-outs that look alike come from different tables or passages of the source.

The subject of experiment [1] is Green Peach Aphid (Myzus persicae) (MYZUPE). Put plainly: Bioassay on Green Peach Aphid (GPA), cabbage seedling foliar spray. Particulars: 72 h, read-out: MYZUPE rating (% Control of Mortality, Abbott corrected). The class given is in vivo. As to the method:
Several molecules disclosed herein were tested against GPA using procedures described below.
Cabbage seedling grown in 3-in pots, with 2-3 small (3-5 cm) true leaves, were used as test substrate. The seedlings were infested with […] (wingless adult and nymph stages) one day prior to chemical application. Four pots with individual seedlings were used for each treatment. Test compounds (2 mg) were dissolved in 2 mL of acetone/MeOH (1:1) solvent, forming stock solutions of 1000 ppm test compound. The stock solutions were diluted 5× with 0.025% Tween 20 in water to obtain the solution at 200 ppm test compound. A hand-held aspirator-type sprayer was used for spraying a solution to both sides of the cabbage leaves until runoff. Reference plants (solvent check) were sprayed with the diluent only containing 20% by volume acetone/MeOH (1:1) solvent. Treated plants were held in a holding room for three days at approximately 25° C. and ambient relative humidity (RH) prior to grading. Evaluation was conducted by counting the number of live aphids per plant under a microscope. Percent Control was measured by using Abbott's correction formula (W. S. Abbott, “A Method of Computing the Effectiveness of an Insecticide” J. Econ. Entomol 18 (1925), pp. 265-267) as follows. Corrected % Control=100*(X−Y)/X • where • X=No. of live aphids on solvent check plants and • Y=No. of live aphids on treated plants
The results are indicated in the table entitled “Table 1: GPA (MYZUPE) and sweetpotato whitefly-crawler (BEMITA) Rating Table”.

The test system of experiment [2] is Sweetpotato Whitefly Crawler (Bemisia tabaci) (BEMITA). As to the kind of experiment: Bioassay on Sweetpotato Whitefly Crawler, cotton plant foliar spray. The class given is in vivo. To be noted: read-out: BEMITA rating (% Control of Mortality, Abbott corrected). As to the method:
Cotton plants grown in 3-inch pots, with 1 small (3-5 cm) true leaf, were used at test substrate. The plants were placed in a room with whitely adults. Adults were allowed to deposit eggs for 2-3 days. After a 2-3 day egg-laying period, plants were taken from the adult whitefly room. Adults were blown off leaves using a hand-held Devilbliss sprayer (23 psi). Plants with egg infestation (100-300 eggs per plant) were placed in a holding room for 5-6 days at 82° F. and 50% RH for egg hatch and crawler stage to develop. Four cotton plants were used for each treatment. Compounds (2 mg) were dissolved in 1 mL of acetone solvent, forming stock solutions of 2000 ppm. The stock solutions were diluted 10× with 0.025% Tween 20 in water to obtain a test solution at 200 ppm. A hand-held Devilbliss sprayer was used for spraying a solution to both sides of cotton leaf until runoff. Reference plants (solvent check) were sprayed with the diluent only. Treated plants were held in a holding room for 8-9 days at approximately 82° F. and 50% RH prior to grading. Evaluation was conducted by counting the number of live nymphs per plant under a microscope.

Where [3] appears, read: 200 ppm spray on cabbage seedlings, live aphids counted after three days.
Setting [4] is: 200 ppm spray on cotton plants, live nymphs counted after 8-9 days.

Broadly, the mortality is the percentage killed. On to `Nc1c[nH]nc1Cl` [Compound 1a, 3-Chloro-1H-pyrazol-4-amine hydrochloride], for which the mortality at 200 ppm in experiment [1] and in experiment [2] was 0 to 80% each time.

As to `CCNc1cn(-c2cccnc2)nc1Cl` [Compound 1d, 3-Chloro-N-ethyl-1-(pyridin-3-yl)-1H-pyrazol-amine], the mortality at 200 ppm in experiment [1] (setting [3]) and in experiment [2] (setting [4]) was 0 to 80% in each case.

With `CC(=O)Nc1c[nH]nc1Cl` [Compound 1b, N-(3-Chloro-1H-pyrazol-4-yl)acetamide], the mortality at 200 ppm in experiment [1] (setting [3]) and in experiment [2] (setting [4]) was 0 to 80% in each case.

As to `CC(=O)Nc1cn(-c2cccnc2)nc1Cl` [Compound 1c, N-(3-Chloro-1-(pyridin-3-yl)-1H-pyrazol-4-yl)acetamide], the mortality at 200 ppm in experiment [1] (setting [3]) and in experiment [2] (setting [4]) was 0 to 80% in each case.

Regarding `CCN(C(=O)CCSCCC(F)(F)F)c1cn(-c2cccnc2)nc1Cl` [Compound 5.1, N-(3-Chloro-1-(pyridin-3-yl)-1H-pyrazol-4-yl)-N-ethyl-3-((3,3,3-trifluoropropyl)thio)propanamide], the mortality at 200 ppm in experiment [1] (setting [3]) and in experiment [2] (setting [4]) was 80 to 100% throughout.

Turning to `CCN(C(=O)CC[S+]([O-])CCC(F)(F)F)c1cn(-c2cccnc2)nc1Cl` (stereo not drawn) [Compound 8.1, N-(3-Chloro-1-(pyridin-3-yl)-1H-pyrazol-4-yl)-N-ethyl-3-((3,3,3-trifluoropropyl)sulfoxo)propanamide], the mortality at 200 ppm in experiment [1] (setting [3]) and in experiment [2] (setting [4]) was 80 to 100% throughout.

The record behind these values is patent US10315999B2, “Processes for the preparation of pesticidal compounds” (Dow AgroSciences LLC, priority 2013, dated 2019).
